This note sets out measurements from patent US12251383B2, “Methods and compositions for KRAS inhibitors” (The Board of Regents of the University of Texas System, priority 2019, dated 2025).

Series [1] is described as follows: Solubility in DMSO and common solvents. The following applies: DMSO. The series is classed as physicochemical.
Another series has as its system KRAS. In words: MST affinity for KRAS (G12D and other KRAS mutants). The following applies: MST KD. Format: binding, human.
Series [2] has as its system H522 (KRAS^WT) lung cancer cells. In words: Cell proliferation (CyQuant), H522. The series is classed as cell-based. The following applies: 72 h. How it is done: (§1) Cell proliferation. Potential effect of the ligands on cancer cell proliferation was tested in three lung cancer cells: SKLU-1, H1975 and H522. Cells were plated at ˜1,000 cell per well in a 96-well plate and maintained in full serum media with or without compound at 37° C. for 72 h changing the media with the compound every 24 h. Media with compound was prepared by serial dilution at concentrations indicated. Then cells were washed with PBS and frozen at −80° C. for a minimum of 24 h. Plates were thawed and CyQuant™ dye (in lysis buffer provided in the CyQuant™ cell proliferation assay kit, Invitrogen™) was added, and after a five-minute incubation, fluorescence (excitation: 480 nm emission: 520 nm) was measured with a Tecan Infinite M200 plate reader.

Series [3] has as its system H1975 (KRAS^WT) lung cancer cells. The experiment in a line: Cell proliferation (CyQuant), H1975. The series is classed as cell-based. Particulars: 72 h. As to the method: as §1
For another series, the system named is KRAS^G12D. In words: Cell signaling (Western) in BHK cells expressing KRAS G12D. Format: cell-based, hamster. The following applies: for pIC50: Mesocricetus auratus, BHK, 3 h. As to the method:
(§2) Cell signaling. The inhibitory potential of compounds was tested in monoclonal Baby Hamster Kidney (BHK) cell lines stably expressing monomeric green fluorescence protein (mGFP)-tagged KRAS^G12D, K-Ras^G12V and HRAS^G12V. Cells were cultured in Dulbecco's Modified Eagle Medium (DMEM, Hyclone) supplemented with 10% v/v bovine calf serum and incubated with compound or vehicle (DMSO) for 3 h without serum. Cells were then harvested in lysis buffer (50 mM Tris (pH 7.5), 75 mM NaCl, 25 mM NaF, 5 mM MgCl2, 5 mM EGTA, 1 mM dithiothreitol, 100 μM NaVO4, 1% Nonidet P40 plus protease inhibitors) and subjected to Western analysis controlling protein loading by BCA (bicinchoninic acid) assay. Lysates were resolved with Bio-Rad polyacrylamide TGX 10% gel, transferred to polyvinylidene fluoride (PVDF) membrane and immunoblotted using pan-AKT (2920S), GFP (2956S), pAKT^S473 (4060L), p-cRaf^S338 (9427S), p-ERK^T202/Y204 (4370L), ERK1/2 (4695S) or β-actin antibodies (Cell Signaling Technology). IC50 values were calculated with Prism 4-parameter fit.
Cell signaling assays identify compound 11 as a promising initial hit Western analysis was used to quickly assess the potential impact of the predicted hits on MAPK signaling, a major pathway mediated by KRAS. Specifically, ERK1/2 phosphorylation levels (p-ERK) were monitored in BHK cells stably expressing KRAS^G12D treated with vehicle (DMSO), the MEK inhibitor […] (U) or compound at four different concentrations (1-100 μM). […] Compounds 9 and 11 (structures for compounds 1-11 are provided in Appendix I, attached hereto), on the other hand, decreased p-ERK levels at concentrations ≥50 μM and ≥5 μM, respectively. To verify the latter observation, the experiments were repeated in an expanded concentration range starting from 0.1 μM. […] However, compound 9 (see Appendix I, attached hereto) increased p-ERK levels at 25 and 38 μM in contrast to the decrease observed at higher concentrations (FIG. S1B; see Appendix I, attached hereto).

For series [4], the target named is T1, KRAS^G12D-cRaf interaction (Homo sapiens, UniProt P01116, G12D).
T1 construct: expressed in transfected cells; host or cells: BHK (baby hamster kidney) cells, transient expression
In words: FLIM-FRET of GFP-KRAS G12D and RFP-cRaf in BHK cells. Format: cell-based, hamster. The following applies: 1 μM. An excerpt: [formula] where P1 is polarization of free KRAS, P2 is polarization of Raf-bound KRAS, c is the total concentration of KRAS, and x the total concentration of Raf^RBD. (FIG. 2B) Amount of GFP-KRAS^G12D pulled down by GST-Raf^RBD after treatment of cell lysates with compound at the concentrations indicated (representative Westerns are shown at the top). The RBD sequence length was 1-149 and 51-131 in the fluorescence polarization and pull-down assays, respectively. (FIG. 2C) GFP fluorescence lifetime from FLIM-FRET using cells expressing GFP-KRAS^G12D alone or with RFP-Raf, with or without treatment by 1 μM compound 11. Data are shown as mean±S.E; significance estimated by one-way analysis of variance.
Fluorescence lifetime imaging (FLIM)-fluorescence resonance energy transfer (FRET). FLIM-FRET experiments were carried out using a lifetime fluorescence imaging attachment (Lambert Instruments, The Netherlands) on an inverted microscope (43). BHK cells transiently expressing mGFP-tagged KRAS^G12D (donor), alone or with mRFP-tagged cRaf^WT (acceptor) (using 1:5 ratio), were prepared as indicated in each experiment. The samples were excited using a sinusoidally modulated 3 W 470 nm light-emitting diode at 40 MHz under epi-illumination. Fluorescein was used as a lifetime reference standard. […] The phase and modulation were determined from 12 phase settings using the manufacturer's software. […]

Another series concerns HRAS^G12V. In words: Cell signaling (Western) in BHK cells expressing HRAS G12V. The series is classed as cell-based, hamster. As to the method:
as §2

Another series has as its system lung cancer cells. In words: Cell proliferation (CyQuant), lung cancer cells overall. Format: cell-based.
Excerpt: (FIG. 5A) Chemical structure of compounds 12, an analogue of 11 lacking the terminal methyl alcohol functional group. (FIG. 5B) Predicted binding pose of compound 12. (FIG. 5C) p-ERK and p-cRaf levels in BHK cells expressing KRAS^G12D treated with indicated concentrations of compound 12 or vehicle. (FIG. 5D) Proliferation profile of lung cancer cells upon treatment with increasing concentration of compound 12, monitored by a CyQuant assay. Data are averages over three independent experiments and error bars represent standard error. (FIG. 5E) GFP fluorescence lifetime from FLIM-FRET using cells expressing GFP-KRAS^G12D alone or together with RFP-cRaf, with or without treatment with 2 μM compound 12.
as §1

pIC50: −log10 of the molar value. Entries after “also recorded” stand apart in the source; their conditions may differ. Where two headings read alike, the source gives them in different places.

Turning to `Cc1cc(N2CCN(CCO)CC2)n2nc(C)c(-c3ccccc3)c2n1` [Compound 13], the solubility entry in series [1] is “readily soluble”. Moreover, the “weaker affinity for KRAS than compound 11” value in the series with KRAS was 6.5-7.1 fold.

`Cc1nn2c(N3CCN(CCO)CC3)cc(-c3ccccc3)nc2c1-c1ccccc1` [Compound 11, 2-[4-(8-methyl-3,9-diphenyl-2,6,7-triazabicyclo[4.3.0]nona-2,4,7,9-tetraen-5-yl)piperazin-1-yl]ethanol]: the sensitivity of proliferation entry in series [2] is given as “sensitive”. Also, the sensitivity of proliferation result in series [3] is reported as “sensitive”. In the series with KRAS^G12D (BHK KRAS^G12D), the “concentration at which p-ERK levels are decreased” value was no less than 5 µM, the “effect on p-ERK levels” value is listed as “dose-dependently reduced; also recorded: dose-dependently decreases” and the “effect on p-cRaf levels” value is on record as “dose-dependently reduced; also recorded: dose-dependently decreases”. The “reduction of p-ERK levels” value with KRAS^G12D (BHK KRAS^G12D, at 5 μM) is reported as roughly 50%. In the series on KRAS^G12D (read-out: IC50 for p-ERK), the pIC50 (as a rule, the negative decadic logarithm of the IC50, by convention in mol/L) was 5.89. In addition, the pIC50 in the series on KRAS^G12D (read-out: IC50 for p-cRaf) was 6.15. Besides, in series [4], the “KRAS^G12D-cRaf interaction (quenching of GFP fluorescence lifetime)” value was “significantly reduced”. Further, in the series on HRAS^G12V, the “effect on p-AKT levels” value was “no major effect”; the “effect on p-ERK levels” value was “not and no significant effect”; the “effect on p-cRaf levels” value was “not and no significant effect”. The “selectivity between KRAS mutant and KRAS^WT lung cancer cells” value in the series with lung cancer cells is listed as “no significant difference”.
